Reference: patent publication US20260285850A1, “SUBSTITUTED OXAZOLIDINONES AND IMIDAZOLINONES AS HERBICIDES” (FMC CORPORATION, priority 2023, published 2026)

Experiments:
Type in all cases: in vivo
[1] = system: ducksalad (Heteranthera limosa); assay: Test B flooded paddy test, visual plant response rating 0-100; conditions: 250 g ai/ha, Flood, applied to paddy water, evaluated after 13 days
In short: (§1)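 Greenhouse, 13 d. Seedlings at 2-leaf stage, pots flooded to 3 cm, compound delivered into floodwater, water level held constant. Evaluated visually relative to controls.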

[2] = system: barnyardgrass (Echinochloa crusgalli); assay: as above; conditions: 250 g ai/ha, Flood, applied to paddy water, evaluated after 13 days
In short: as §1

[3] = system: sedge, umbrella (small-flower umbrella sedge, Cyperus difformis); assay: as above; conditions: 250 g ai/ha, Flood, applied to paddy water, evaluated after 13 days
In short: as §1

rice (Oryza sativa) = assay: as above; conditions: 250 g ai/ha, Flood, applied to paddy water, evaluated after 13 days
In short: as §1

[4] = system: oat, wild (wild oat, Avena fatua); assay: Test A preemergence soil spray, visual injury rating 0-100; conditions: 10 days, 0 = no effect, 100 = complete control
In short: (§2)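 Preemergence directed soil spray or postemergence spray (2-10 cm, 1-2 leaf); loam/sand mix; compound in non-phytotoxic solvent + surfactant. Greenhouse, 10 d. Visual injury vs untreated, 0 = none, 100 = complete control.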

[5] = system: green foxtail (Setaria viridis); assay: as above; conditions: 10 days, 0 = no effect, 100 = complete control
In short: as §2

kochia (Bassia scoparia) [6] = assay: as above; conditions: 10 days, 0 = no effect, 100 = complete control
In short: as §2

corn (Zea mays) [7] = assay: as above; conditions: 10 days, 0 = no effect, 100 = complete control
In short: as §2

[8] = system: ryegrass, Italian (italian ryegrass, Lolium multiflorum); assay: as above; conditions: 10 days, 0 = no effect, 100 = complete control
In short: as §2

[9] = system: blackgrass (Alopecurus myosuroides); assay: as above; conditions: 10 days, 0 = no effect, 100 = complete control
In short: as §2

[10] = system: ragweed (common ragweed, Ambrosia artemisiifolia); assay: as above; conditions: 10 days, 0 = no effect, 100 = complete control
In short: as §2

[11] = system: wheat (Triticum aestivum); assay: as above; conditions: 10 days, 0 = no effect, 100 = complete control
In short: as §2

[12] = system: palmer (palmer amaranth, palmer pigweed, Amaranthus palmeri); assay: as above; conditions: 10 days, 0 = no effect, 100 = complete control
In short: as §2

soybean (Glycine max) [13] = assay: as above; conditions: 10 days, 0 = no effect, 100 = complete control
In short: as §2

[14] = system: barnyardgrass (Echinochloa crus-galli); assay: as above; conditions: 10 days, 0 = no effect, 100 = complete control
In short: as §2

[15] = system: oat, wild (wild oat, Avena fatua); assay: Test A postemergence application, visual injury rating 0-100; conditions: 10 days
Description: (§3) Seeds of plant species selected from barnyardgrass (Echinochloa crus-galli), blackgrass (Alopecurus myosuroides), corn (Zea mays), foxtail, giant (giant foxtail, Setaria faberi), green foxtail (Setaria viridis), goosegrass (Eleusine indica), kochia (Bassia scoparia), oat, wild (wild oat, Avena fatua), palmer (palmer amaranth, palmer pigweed, Amaranthus palmeri), ragweed (common ragweed, Ambrosia artemisiifolia), ryegrass, Italian (italian ryegrass, Lolium multiflorum), soybean (Glycine max) and wheat (Triticum aestivum) were planted into a blend of loam soil and sand and treated preemergence with a directed soil spray using test chemicals formulated in a non-phytotoxic solvent mixture which included a surfactant.
(§4) At the same time, plants selected from these crops and weed species and also galium (catchweed bedstraw, Galium aparine) and horseweed (Erigeron canadensis) were planted in pots containing the same blend of loam soil and sand and treated with postemergence applications of test chemicals formulated in the same manner. Plants ranged in height from 2 to 10 cm and were in the one- to two-leaf stage for the postemergence treatment. Treated plants and untreated controls were maintained in a greenhouse for 10 days, after which time all treated plants were compared to untreated controls and visually evaluated for injury. Plant response ratings, summarized in Table A, are based on a 0 to 100 scale where 0 is no effect and 100 is complete control. A dash (-) response means no test result.

[16] = system: green foxtail (Setaria viridis); assay: as above; conditions: 10 days
Description: as §3, §4

kochia (Bassia scoparia) [17] = assay: as above; conditions: 10 days
Description: as §3, §4

corn (Zea mays) [18] = assay: as above; conditions: 10 days
Description: as §3, §4

[19] = system: ryegrass, Italian (italian ryegrass, Lolium multiflorum); assay: as above; conditions: 10 days
Description: as §3, §4

[20] = system: blackgrass (Alopecurus myosuroides); assay: as above; conditions: 10 days
Description: as §3, §4

[21] = system: ragweed (common ragweed, Ambrosia artemisiifolia); assay: as above; conditions: 10 days
Description: as §3, §4

[22] = system: horseweed (Erigeron canadensis); assay: as above; conditions: 10 days
Description: as §3, §4

[23] = system: wheat (Triticum aestivum); assay: as above; conditions: 10 days
Description: as §3, §4

[24] = system: palmer (palmer amaranth, palmer pigweed, Amaranthus palmeri); assay: as above; conditions: 10 days
Description: as §3, §4

soybean (Glycine max) [25] = assay: as above; conditions: 10 days
Description: as §3, §4

[26] = system: barnyardgrass (Echinochloa crus-galli); assay: as above; conditions: 10 days
Description: as §3, §4

[27] = 31 g ai/ha, postemergence, 0 = no effect, 100 = complete control
[28] = Postemergence, 125 g ai/ha, 0 is no effect, 100 is complete control

CC(C)OC(=O)C1CCC(NC(=O)C2(C)CN(c3cc(F)cc(F)c3)C(=O)O2)C1 (centres unmarked) [Compound 12]
Plant response rating, Ducksalad (0 to 100 scale, 0 is no effect and 100 is complete control) [1]: 0 | Plant response rating, Barnyardgrass (0 to 100 scale, 0 is no effect and 100 is complete control) [2]: 0 | Plant response rating, Sedge, Umbrella (0 to 100 scale, 0 is no effect and 100 is complete control) [3]: 0 | Plant response rating, Rice (0 to 100 scale, 0 is no effect and 100 is complete control) (rice (Oryza sativa)): 0 | Oat, Wild plant response rating (0-100) ([4]; 31 g ai/ha): 0 | Oat, Wild plant response rating (0 to 100 scale) ([4]; 125 g ai/ha): 90 | Foxtail, Green plant response rating (0-100) ([5]; 31 g ai/ha): 0 | Foxtail, Green plant response rating (0 to 100 scale) ([5]; 125 g ai/ha): 50 | Kochia plant response rating (0-100) (kochia (Bassia scoparia) [6]; 31 g ai/ha): 20 | Kochia plant response rating (0 to 100 scale) (kochia (Bassia scoparia) [6]; 125 g ai/ha): 70 | Corn plant response rating (0-100) (corn (Zea mays) [7]; 31 g ai/ha): 0 | Corn plant response rating (0 to 100 scale) (corn (Zea mays) [7]; 125 g ai/ha): 50 | Ryegrass, Italian plant response rating (0-100) ([8]; 31 g ai/ha): 0 | Ryegrass, Italian plant response rating (0 to 100 scale) ([8]; 125 g ai/ha): 90 | Blackgrass plant response rating (0-100) ([9]; 31 g ai/ha): 20 | Blackgrass plant response rating (0 to 100 scale) ([9]; 125 g ai/ha): 80 | Ragweed plant response rating (0-100) ([10]; 31 g ai/ha): 0 | Ragweed plant response rating (0 to 100 scale) ([10]; 125 g ai/ha): 0 | Wheat plant response rating (0-100) ([11]; 31 g ai/ha): 50 | Wheat plant response rating (0 to 100 scale) ([11]; 125 g ai/ha): 90 | Amaranth, Palmer plant response rating (0-100) ([12]; 31 g ai/ha): 0 | Amaranth, Palmer plant response rating (0 to 100 scale) ([12]; 125 g ai/ha): 0 | Soybean plant response rating (0-100) (soybean (Glycine max) [13]; 31 g ai/ha): 10 | Soybean plant response rating (0 to 100 scale) (soybean (Glycine max) [13]; 125 g ai/ha): 0 | Barnyardgrass plant response rating (0-100) ([14]; 31 g ai/ha): 0 | Barnyardgrass plant response rating (0 to 100 scale) ([14]; 125 g ai/ha): 90 | Oat, Wild plant response rating (0-100) [15, 27]: 80 | Oat, Wild plant response rating (0 to 100 scale) [15, 28]: 90 | Foxtail, Green plant response rating (0-100) [16, 27]: 20 | Foxtail, Green plant response rating (0 to 100 scale) [16, 28]: 60 | Kochia plant response rating (0-100) (kochia (Bassia scoparia) [17]; [27]): 20 | Kochia plant response rating (0 to 100 scale) (kochia (Bassia scoparia) [17]; [28]): 80 | Corn plant response rating (0-100) (corn (Zea mays) [18]; [27]): 20 | Corn plant response rating (0 to 100 scale) (corn (Zea mays) [18]; [28]): 50 | Ryegrass, Italian plant response rating (0-100) [19, 27]: 60 | Ryegrass, Italian plant response rating (0 to 100 scale) [19, 28]: 80 | Blackgrass plant response rating (0-100) [20, 27]: 50 | Blackgrass plant response rating (0 to 100 scale) [20, 28]: 80 | Ragweed plant response rating (0-100) [21, 27]: 0 | Ragweed plant response rating (0 to 100 scale) [21, 28]: 0 | Horseweed plant response rating (0-100) [22, 27]: 0 | Horseweed plant response rating (0 to 100 scale) [22, 28]: 10 | Wheat plant response rating (0-100) [23, 27]: 50 | Wheat plant response rating (0 to 100 scale) [23, 28]: 60 | Amaranth, Palmer plant response rating (0-100) [24, 27]: 0 | Amaranth, Palmer / Pigweed, Palmer plant response rating (0 to 100 scale) [24, 28]: 20 | Soybean plant response rating (0-100) (soybean (Glycine max) [25]; [27]): 30 | Soybean plant response rating (0 to 100 scale) (soybean (Glycine max) [25]; [28]): 50 | Barnyardgrass plant response rating (0-100) [26, 27]: 10 | Barnyardgrass plant response rating (0 to 100 scale) [26, 28]: 100
